Results published in patent US8841324B2, “Heterocyclic compounds as autotaxin inhibitors” (Merck Patent GmbH, priority 2009, dated 2014).

Biological target: T1, recombinant autotaxin (Homo sapiens, UniProt Q13822)
T1 construct: made in house; host or cells: Hi5 insect cells (baculovirus)
Assay: Autotaxin test (enzyme test), Amplex Red fluorescence readout
Assay type: biochemical
Conditions: Autotaxin inhibition (enzyme test); substrate LPC 75 μM, 37° C. for 90 min
Procedure: Pharmacological Data Autotaxin Inhibition (Enzyme Test)
Autotaxin Test (Enzyme Test)
The autotaxin activity is measured indirectly using Amplex Red reagent. Amplex Red is measured here as fluorogenic indicator for the H2O2 formed. In detail, autotaxin converts the substrate lysophosphatidylcholine (LPC) into phosphocholine and lysophosphatidylic acid (LPA). After this reaction, the phosphocholine is reacted with alkaline phosphatase to give inorganic phosphate and choline. In the next step, choline is oxidised by choline oxidase to give betaine, with formation of H2O2. H2O2 reacts with Amplex Red reagent in the presence of peroxidase (horseradish peroxidase) in a 1:1 stoichiometry and forms the highly fluorescent resorufin. The fluorescence is measured in a reaction-dependent kinetic mode in order that fluorescent signals from possible other fluorescent substances which are not involved in the reaction can be corrected out.
1.5 μl of a standard solution or of the test substances (substances with the name A(n)) in individual concentrations dissolved in 20 mM Hepes pH 7.2 with a maximum of 7.7% of DMSO are pre-incubated together with 10 μl (16 ng) of highly purified recombinant autotaxin in a black microtitre plate provided with 384 wells at 22° C. for 30 min. The reaction is then initiated by addition of 5 μl of L-α-lysophosphatidylcholine (LPC), where the final concentration of LPC is 75 μM. The mixture is incubated at 37° C. for 90 min. After the incubation, Amplex Red reagent, peroxidase (horseradish peroxidase) and choline oxidase is added, and the fluorescence is immediately measured at 612 nm with excitation of 485 nm in a “Tecan Ultra multimode” reader. The activity of autotaxin is calculated indirectly via detection of the H2O2 formed.
• Microtitre plate: PS microplate, 384 wells, small volume, black Corning, Cat#3677 • Protein: recombinant autotaxin (Baculovirale Hi5 Expression) • Substrate: L-α-lysophosphatidylcholine (chicken egg)); Avanti Polar Lipids #830071P • Standard: C14 LPA, Avanti Polar Lipids, Cat#857120P • Detection reagent: Amplex Red reagent; Invitrogen # A12222; dissolved in 1.923 ml of DMSO peroxidase type VI-A (horseradish) from Sigma # P6782; dissolved in 7.45 ml of test buffer, choline oxidase; Sigma # C5896; dissolved in 2.47 ml of test buffer • Detection reagent mix: 1:100 dilution of Amplex Red reagent in test buffer • Test buffer: 200 mM Tris HCl, Merck, Cat #1.08219, pH 7.9, 0.1% of BSA, lipid-free, Roche Cat#775835

Row | Compound | IC50 [nM]
1 | O=C(OCc1cc(Cl)cc(Cl)c1)N1CCN(CCC(O)c2ccc3[nH]c(=O)oc3c2)CC1 (stereo not drawn) [Compound 13, 3,5-dichlorobenzyl 4-[3-hydroxy-3-(2-oxo-2,3-dihydrobenzoxazol-6-yl)propyl]piperazine-1-carboxylate] | 100 to 1000
2 | O=C(OCc1cc(Cl)cc(Cl)c1)N1CCN(CCN2CCC(c3ccc4[nH]c(=O)oc4c3)=N2)CC1 [Compound 21, 3,5-dichlorobenzyl 4-{2-[3-(2-oxo-2,3-dihydrobenzoxazol-6-yl)-4,5-dihydropyrazol-1-yl]ethyl}piperazine-1-carboxylate] | > 1000
3 | O=C(CNC1CCN(C(=O)OCc2cc(Cl)cc(Cl)c2)CC1)Nc1ccc2[nH]c(=O)oc2c1 [Compound 11, 3,5-dichlorobenzyl 4-{[(2-oxo-2,3-dihydrobenzoxazol-6-ylcarbamoyl)methyl]amino}piperidine-1-carboxylate] | 100 to 1000
4 | O=C(Cc1ccc2[nH]nnc2c1)N1CCN(C(=O)OCc2ccc(Cl)cc2)CC1 [Compound 24, 4-chlorobenzyl 4-(2-1H-benzotriazol-5-ylacetyl)piperazine-1-carboxylate] | > 1000
5 | O=C(CC(=O)NC1CCN(C(=O)OCc2ccc(Cl)cc2)CC1)Nc1ccc2[nH]nnc2c1 [Compound 39, 4-chlorobenzyl 4-[2-(1H-benzotriazol-5-ylcarbamoyl)acetylamino]piperidine-1-carboxylate] | 100 to 1000
6 | O=C(CCNC(=O)N1CCN(C(=O)OCc2ccc(Cl)cc2)CC1)Nc1ccc2[nH]nnc2c1 [Compound 33, 4-chlorobenzyl 4-[2-(1H-benzotriazol-5-ylcarbamoyl)ethyl-carbamoyl]piperazine-1-carboxylate] | > 1000
7 | O=C(CN1CCN(C(=O)CCOc2ccc(Cl)cc2)CC1)c1ccc2[nH]c(=O)oc2c1 [Compound 27, 6-(2-{4-[3-(4-chlorophenoxy)propionyl]piperazin-1-yl}acetyl)-3H-benzoxazol-2-one] | > 1000
8 | O=C(OCc1ccc(Cl)cc1)N1CCN(CCC(F)(F)c2ccc3[nH]c(=O)oc3c2)CC1 [Compound 17, 4-chlorobenzyl 4-[3,3-difluoro-3-(2-oxo-2,3-dihydrobenzoxazol-6-yl)propyl]piperazine-1-carboxylate] | 100 to 1000

The next lines start with the values.

Row | IC50 [nM] | Compound
9 | > 1000 | O=C(NC1[C@H]2CN(C(=O)OCc3cc(Cl)cc(Cl)c3)C[C@@H]12)c1ccc2nn[nH]c2c1 (stereo partly drawn) [Compound A17, 3,5-Dichlorobenzyl (1R,5S)-6-[(3H-benzotriazole-5-carbonyl)amino]-3-azabicyclo[3.1.0]hexane-3-carboxylate]
10 | > 1000 | O=C(CN1CCN(C(=O)OCc2ccc(Cl)cc2)CC1)Nc1ccc2[nH]c(=O)oc2c1 [Compound A8, 4-Chlorobenzyl 4-[(2-oxo-2,3-dihydrobenzoxazol-6-ylcarbamoyl)methyl]piperazine-1-carboxylate]
11 | > 1000 | O=C(CCCN1CCN(C(=O)OCc2ccc(Cl)cc2)CC1)Nc1ccc2[nH]nnc2c1 [Compound A14, 4-Chlorobenzyl 4-[3-(1H-benzotriazol-5-yl-carbamoyl)propyl]piperazine-1-carboxylate]
12 | > 1000 | O=C(NCCN1CCN(C(=O)OCc2ccc(Cl)cc2F)CC1)c1ccc2[nH]nnc2c1 [Compound A3, 4-Chloro-2-fluorobenzyl 4-{2-[(1H-benzotriazole-5-carbonyl)amino]ethyl}piperazine-1-carboxylate]
13 | > 1000 | O=C(NCCN1CCN(C(=O)OCc2ccc(C(F)(F)F)cc2)CC1)c1ccc2[nH]nnc2c1 [Compound A2, 4-Trifluoromethylbenzyl 4-{2-[(1H-benzotriazole-5-carbonyl)amino]ethyl}piperazine-1-carboxylate]
14 | > 1000 | O=C(CN1CCC(NC(=O)OCc2cc(Cl)cc(Cl)c2)C1)Nc1ccc2[nH]nnc2c1 (stereo not drawn) [Compound A16, 3,5-Dichlorobenzyl {1-[(1H-benzotriazol-5-yl-carbamoyl)methyl]pyrrolidin-3-yl}crbamate]
15 | > 1000 | O=C(Nc1ccc2[nH]c(=O)oc2c1)C(c1ccccc1)N1CCN(C(=O)OCc2ccc(Cl)cc2)CC1 (stereo not drawn) [Compound A10, 4-Chlorobenzyl 4-[(2-oxo-2,3-dihydrobenzoxazol-6-ylcarbamoyl)phenylmethyl]piperazine-l-carboxylate]
16 | > 1000 | O=C(CCN1CCN(C(=O)OCc2ccc(Cl)cc2)CC1)Nc1ccc2[nH]c(=O)oc2c1 [Compound A13, 4-Chlorobenzyl 4-[2-(2-oxo-2,3-dihydrobenzoxazol-6-ylcarbamoyl)ethyl]piperazine-1-carboxylate]
17 | 100 to 1000 | O=C(NCCN1CCN(C(=O)OCc2cc(Cl)cc(Cl)c2)CC1)c1ccc2[nH]nnc2c1 [Compound A1, 3,5-Dichlorobenzyl 4-{2-[(1H-benzotriazole-5-carbonyl)amino]ethyl}piperazine-1-carboxylate]
18 | > 1000 | O=C(OCc1cc(Cl)cc(Cl)c1)N1CCN(CC(O)c2ccc3[nH]c(=O)oc3c2)CC1 (stereo not drawn) [Compound A18, 3,5-Dichlorobenzyl 4-[2-hydroxy-2-(2-oxo-2,3-dihydrobenzoxazol-6-yl)ethyl]piperazine-1-carboxylate]
